Patent US20250127905A1, “GLUTARIMIDE COMPOUND AND USE THEREOF” (MEDSHINE DISCOVERY INC., priority 2021, published 2025)
Structures can show the parent of a compound that is named as a salt.

What was measured:
IRAK4 = target: T1, IRAK4 (Homo sapiens, UniProt Q9NWZ3); assay: Target protein degradation effect in K562 IRAK4-HiBiT cells (Nano-Glo HiBiT); assay type: cell-based; details: incubated 16 to 18 hours
T1 construct: expressed in transfected cells; host or cells: K562 IRAK4-HiBiT cells
T1 sequence (Q9NWZ3 1-460): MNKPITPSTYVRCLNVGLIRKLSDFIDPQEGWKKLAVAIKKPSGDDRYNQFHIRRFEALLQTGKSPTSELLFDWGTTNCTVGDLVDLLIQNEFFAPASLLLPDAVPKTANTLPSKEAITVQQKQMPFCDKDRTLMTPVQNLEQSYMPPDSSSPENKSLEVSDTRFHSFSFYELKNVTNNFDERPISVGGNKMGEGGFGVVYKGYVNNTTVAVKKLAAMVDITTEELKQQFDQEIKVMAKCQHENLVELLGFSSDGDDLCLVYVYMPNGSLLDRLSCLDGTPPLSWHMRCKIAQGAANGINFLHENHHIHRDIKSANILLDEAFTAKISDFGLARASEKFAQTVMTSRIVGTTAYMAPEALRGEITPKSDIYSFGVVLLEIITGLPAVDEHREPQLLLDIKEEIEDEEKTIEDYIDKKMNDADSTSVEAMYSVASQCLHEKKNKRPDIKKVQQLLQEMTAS
Description: Experimental purpose: In this experiment, the degradation effect of the test compound on the target protein IRAK4 in K562 IRAK4-HiBiT cells was detected.
• Cells: K562 IRAK4-HiBiT cells • Culture media: RPMI 1640+10% FBS+2 mM GlutaMax+1 mM sodium pyruvate+penicillin/streptomycin • Positive control: 1000 nM; negative control: 0.1% DMSO
• (1). The compound to be tested in powder form was dissolved in DMSO to 10 mM as a storage concentration, and 9 μL of the 10 mM compound to be tested was manually pipetted to column 1 and column 13 of an LDV plate using a pipette; • (2). 6 μL of DMSO was added to columns 2 to 12 and 14 to 24 using Multidrop Combi; [0688](3). the compound to be tested was 3-fold diluted (3 μL+6 μL) from columns 1 to 11 and 13 to 23 using Bravo; • (4). 25 nL of compound solution (columns 1 to 24 of the LDV plate) was transferred to an assay plate using Echo according to the plate layout; • (5). 25 nL of 1 mM positive control solution was transferred to the assay plate as a 100% degradation control (i.e., LC, HPE) and 25 nL of DMSO was transferred to the assay plate as a 0% control (i.e., HC, ZPE) using Echo.
• (1). The cell culture medium was discarded, and the cells were washed once with DPBS, digested with trypsin, and counted to prepare a cell suspension of […]; • (2). 25 µL/well of cell suspension was added to the assay plate containing the compound to be tested using Multidrop Combi at medium speed; • (3). the assay plate containing cells was returned to an incubator with 5% CO2 at 37° C. and incubated for 16 to 18 hours.
• (1). 25 µL/well of assay reagent (NanoGlo lysis buffer+substrate+LgBit protein) was added to the assay plate using Multidrop Combi at high speed, and the plate was shaken for 10 minutes; • (2). the plate was centrifuged at 2000 rpm for 1 minute to remove air bubbles; • (3). the plate was read on Envision using US Luminescence detection method.
The inhibition rate (IR) of the test compound was calculated using the following formula: IR (%)=(RLU vehicle control−RLU compound)/(RLU vehicle control−RLU positive control)×100%, and the vehicle control is the blank control. The inhibition rates of compounds at different concentrations were calculated in Excel, and then XLFit software was used to plot inhibition curves and calculate relevant parameters, including minimum inhibition rate, maximum inhibition rate, and DC50.

[1] = Pharmacokinetic evaluation in mice, experimental operation A (CD-1); assay type: in vivo; details: CD-1 mice; for bioavailability / clearance / Vd / half-life: male, mouse, plasma; for bioavailability: IV 1 mg/kg, PO 10 mg/kg, read-out: Bioavailability F; for Vd: read-out: Apparent volume of distribution; for half-life: read-out: Elimination half-life (converted)
Source text: In this study, CD-1 or C57BL/6N male mice were selected as test animals, and LC/MS/MS method was used to quantify plasma concentrations of the test compound intravenously injected or intragastrically administered to mice at different time points, so as to evaluate the pharmacokinetic profile of the test drug in mice.
CD-1 mice (male, 20 to 35 g, 7 to 10 weeks old, Beijing Vital River) or C57BL/6N mice (male, 20 to 30 g, 7 to 10 weeks old, Beijing Vital River)
A clarified solution or suspension of the test compound was injected into CD-1 mice (overnight fasting) via the tail vein (vehicle: 10% DMSO/10% Solutol/80% H2O), or intragastrically administered into CD-1 mice (overnight fasting). For intravenous injection, blood was collected from the saphenous vein at 0 h (pre-administration) and 0.083 h, 0.25 h, 0.5 h, 1 h, 2 h, 4 h, 8 h, and 24 h after administration, and placed in an anticoagulant tube added with EDTA-K2. The mixture was thoroughly vortexed and mixed, and centrifuged at 3200 g for 10 minutes at 4° C. to obtain plasma. For oral administration, blood was collected from the saphenous vein at 0.25 h, 0.5 h, 1 h, 2 h, 4 h, 8 h, and 24 h after administration, and placed in an anticoagulant tube added with EDTA-K2 (Jiangsu Kangjian Medical Apparatus Co., Ltd.). The mixture was thoroughly vortexed and mixed, and centrifuged at 3200 g for 10 minutes at 4° C. to obtain plasma. Plasma concentrations were determined by LC-MS/MS method, and relevant pharmacokinetic parameters were calculated using Phoenix WinNonlin™ Version 6.3 (Pharsight, Mountain View, CA) pharmacokinetic software with non-compartmental model linear-log trapezoidal method.

[2] = Intragastric administration 10 mg/kg

| Compound | DC50 (IRAK4) | Maximum inhibition rate (IRAK4) | further results |
| --- | --- | --- | --- |
| O=C1CCC(c2coc3cc(NC(=O)CN4CCN(C[C@H]5CC[C@H](n6cc(NC(=O)c7cnn8ccc(N9C[C@H]%10C[C@@H]9CO%10)nc78)c(C(F)F)n6)CC5)CC4)ccc23)C(=O)N1 (stereo partly drawn) [Hydrochloride of WX002] | 24.3 nM | 56.72% |  |
| O=C1CCC(c2noc3c(NC(=O)C(F)(F)C4CCN(C[C@H]5CC[C@H](n6cc(NC(=O)c7cnn8ccc(N9C[C@H]%10C[C@@H]9CO%10)nc78)c(C(F)F)n6)CC5)CC4)cccc23)C(=O)N1 (stereo partly drawn) [Hydrochloride of WX017] | 7.02 nM | 115.78% |  |
| O=C1CCC(c2coc3ccc4c(NC(=O)CN5CCN(C[C@H]6CC[C@H](n7cc(NC(=O)c8cnn9ccc(N%10C[C@H]%11C[C@@H]%10CO%11)nc89)c(C(F)F)n7)CC6)CC5)cccc4c23)C(=O)N1 (stereo partly drawn) [Hydrochloride of WX010] | 6.54 nM | 74.90% |  |
| O=C1CCC(c2coc3c(NC(=O)CN4CCN(C[C@H]5CC[C@H](n6cc(NC(=O)c7cnn8ccc(N9C[C@H]%10C[C@@H]9CO%10)nc78)c(C(F)F)n6)CC5)CC4)cccc23)C(=O)N1 (stereo partly drawn) [Hydrochloride of WX006] | 12.9 nM | 97.11% | Area under the drug-time curve (0-inf) [1, 2]: 7.73 µM·h; Peak concentration [1, 2]: 1.73 µM; Time to peak concentration [1, 2]: 1.0 h; Area under the drug-time curve (0-inf) ([1]; Intravenous injection 1 mg/kg): 1.18 µM·h; bioavailability [1]: 65.6%; clearance ([1]; Intravenous injection 1 mg/kg): 16.8 mL/min/kg; Vd ([1]; Intravenous injection 1 mg/kg): 1.47 L/kg; half-life ([1]; Intravenous injection 1 mg/kg): 1.03 h |
| O=C1CCC(c2noc3c(NC(=O)CN4CCC(CN5CCC(n6cc(NC(=O)c7cnn8ccc(N9C[C@H]%10C[C@@H]9CO%10)nc78)c(C(F)F)n6)CC5)CC4)cccc23)C(=O)N1 (stereo partly drawn) [Hydrochloride of WX021] | 2.59 nM | 102.77% |  |
| O=C1CCC(c2noc3ccc4c(NC(=O)CN5CCN(C[C@H]6CC[C@H](n7cc(NC(=O)c8cnn9ccc(N%10C[C@H]%11C[C@@H]%10CO%11)nc89)c(C(F)F)n7)CC6)CC5)cccc4c23)C(=O)N1 (stereo partly drawn) [Hydrochloride of WX014] | 4.29 nM | 85.62% |  |
| O=C1CCC(c2noc3c(NC(=O)CN4CCC(O[C@H]5CC[C@H](n6cc(NC(=O)c7cnn8ccc(N9C[C@H]%10C[C@@H]9CO%10)nc78)c(C(F)F)n6)CC5)CC4)cccc23)C(=O)N1 (stereo partly drawn) [WX024] | 1.37 nM | 109.35% |  |
| O=C1CCC(c2noc3c(CCCOC4CCN(C[C@H]5CC[C@H](n6cc(NC(=O)c7cnn8ccc(N9C[C@H]%10C[C@@H]9CO%10)nc78)c(C(F)F)n6)CC5)CC4)cccc23)C(=O)N1 (stereo partly drawn) [Hydrochloride of WX022] | 7.14 nM | 103.04% |  |
| O=C1CCC(c2noc3c(CCCN4CCN(C[C@H]5CC[C@H](n6cc(NC(=O)c7cnn8ccc(N9C[C@H]%10C[C@@H]9CO%10)nc78)c(C(F)F)n6)CC5)CC4)cccc23)C(=O)N1 (stereo partly drawn) [Hydrochloride of WX020] | 5.43 nM | 100.80% |  |
| O=C1CCC(c2coc3c(C#CCOC4CCN(C[C@H]5CC[C@H](n6cc(NC(=O)c7cnn8ccc(N9C[C@H]%10C[C@@H]9CO%10)nc78)c(C(F)F)n6)CC5)CC4)cccc23)C(=O)N1 (stereo partly drawn) [Hydrochloride of WX003] | 25.5 nM | 100.06% | Area under the drug-time curve (0-inf) [1, 2]: 4.83 µM·h; Peak concentration [1, 2]: 0.61 µM; Time to peak concentration [1, 2]: 4.0 h; Area under the drug-time curve (0-inf) ([1]; Intravenous injection 1 mg/kg): 1.72 µM·h; bioavailability [1]: 28.2%; clearance ([1]; Intravenous injection 1 mg/kg): 11.7 mL/min/kg; Vd ([1]; Intravenous injection 1 mg/kg): 1.71 L/kg; half-life ([1]; Intravenous injection 1 mg/kg): 1.74 h |
| O=C1CCC(c2noc3c(NC(=O)CN4CCN(C[C@H]5CC[C@H](n6cc(NC(=O)c7cnn8ccc(N9CC%10CCC(C9)O%10)nc78)c(C(F)F)n6)CC5)CC4)cccc23)C(=O)N1 (stereo partly drawn) [Formate of WX018] | 9.11 nM | 97.79% |  |
| O=C1CCC(c2coc3c(NC(=O)C(F)(F)C4CCN(C[C@H]5CC[C@H](n6cc(NC(=O)c7cnn8ccc(N9C[C@H]%10C[C@@H]9CO%10)nc78)c(C(F)F)n6)CC5)CC4)cccc23)C(=O)N1 (stereo partly drawn) [Hydrochloride of WX016] | 34.2 nM | 112.11% |  |
| O=C1CCC(c2noc3c(CC(=O)NC4CCN(C[C@H]5CC[C@H](n6cc(NC(=O)c7cnn8ccc(N9C[C@H]%10C[C@@H]9CO%10)nc78)c(C(F)F)n6)CC5)CC4)cccc23)C(=O)N1 (stereo partly drawn) [Formate of WX023] | 2.55 nM | 103.01% |  |
